The target in the assay is T1, TANK binding kinase (TBK1) (Homo sapiens, UniProt Q9UHD2).
T1 sequence (Q9UHD2 1-729): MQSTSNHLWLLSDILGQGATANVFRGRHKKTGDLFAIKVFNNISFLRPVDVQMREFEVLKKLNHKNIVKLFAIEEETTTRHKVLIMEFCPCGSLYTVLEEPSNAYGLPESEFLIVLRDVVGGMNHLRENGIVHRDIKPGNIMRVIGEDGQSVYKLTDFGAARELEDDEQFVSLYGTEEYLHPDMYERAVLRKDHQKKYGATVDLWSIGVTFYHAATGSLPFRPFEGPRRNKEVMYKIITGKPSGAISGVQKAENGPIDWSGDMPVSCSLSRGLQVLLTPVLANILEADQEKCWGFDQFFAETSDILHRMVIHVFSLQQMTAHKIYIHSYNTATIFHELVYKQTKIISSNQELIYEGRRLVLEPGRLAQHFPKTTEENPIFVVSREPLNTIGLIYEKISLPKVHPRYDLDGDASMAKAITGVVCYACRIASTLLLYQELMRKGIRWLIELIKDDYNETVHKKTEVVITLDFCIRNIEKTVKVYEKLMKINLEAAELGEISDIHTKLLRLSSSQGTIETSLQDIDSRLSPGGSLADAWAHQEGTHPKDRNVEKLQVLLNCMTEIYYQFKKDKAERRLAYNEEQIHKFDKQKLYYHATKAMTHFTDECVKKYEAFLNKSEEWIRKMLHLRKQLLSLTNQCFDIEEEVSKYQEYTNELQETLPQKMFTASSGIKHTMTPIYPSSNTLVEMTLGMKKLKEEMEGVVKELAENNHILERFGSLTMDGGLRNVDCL
The assay is described as follows: TBK1 enzyme assay (384-well flashplate kinase assay). The assay is classed as biochemical. As to conditions: 10 μM ATP, 0.6 nM TBK1. As to the method:
Test for the Inhibition of TBK1
The kinase assay is performed as 384-well flashplate assay (for example for Topcount measurement).
0.6 nM TANK binding kinase (TBK1), 800 nM biotinylated MELK-derived peptide (biotin-Ah-Ah-[…]) and 10 μM ATP (spiked with 0.25 μCi of ^33P-ATP/well) are incubated at 30° C. for 120 min in a total volume of 50 μl (10 mM MOPS, 10 mM Mg acetate, 0.1 mM EGTA, 1 mM DTT, 0.02% of Brij35, 0.1% of BSA, pH 7.5) with or without test compound. The reaction is stopped with 25 μl of 200 mM EDTA. After 30 min at room temperature, the liquid is removed, and each well is washed three times with 100 μl of 0.9% sodium chloride solution. Non-specific reaction is measured in the presence of 100 nM staurosporine. The radioactivity is measured in a Topcount (PerkinElmer). The results (for example IC50 values) are calculated using program tools provided by the IT Department (for example Assay-Explorer, Symyx). Cell Test

On to `COCCn1cc(-c2cnc3[nH]cc(-c4cnc(OC5CCOCC5)c(C#N)c4)c3c2)cn1` [Compound A38, 5-{5-[1-(2-Methoxyethyl)-1H-pyrazol-4-yl]-1H-pyrrolo-[2,3-b]pyridin-3-yl}-2-(tetrahydropyran-4-yloxy)-nicotinonitrile], for which the IC50 (usually the concentration at which inhibition is half-maximal) is less than 300 nM.

The record behind these values is patent US9102675B2, “3-Cyanoaryl-1H-pyrrolo[2,3-B] pyridine derivatives” (MERCK PATENT GMBH, priority 2011, dated 2015).
